The values that follow are results of earlier work, collected in patent publication US20260355230A1, “SODIUM BICARBONATE PRODUCT FOR CHILDBIRTH LABOR” (LAMINARIA GROUP AB, priority 2023, published 2026).

For data set [1] the following is noted: 4.26 g sodium bicarbonate dissolved in water, oral.
For data set [2] the following is noted: large amounts, particularly as an aqueous solution.

For `O=C([O-])O.[Na+]` [sodium bicarbonate], the “pH in maternal blood” value in data set [1] is “increased significantly”. Also, in data set [1] (vs untreated group), the fetal outcome is “a difference in fetal outcome was shown between the two groups” and the “frequency of spontaneous vaginal deliveries” value was “substantially higher”. Besides, in data set [1] (vs untreated group, AFL >10.1 mmol/L), the AFL levels result is given as “fell significantly”. Besides, the gastrointestinal side-effect entry in data set [2] was “acute gastrointestinal (GI) distress”.
